Measured values from the Deep4Chem optical property database.
“And” between values parts separate entries of the source, which are not always exact repeats. Identical values can stand only once. Each block holds one compound with its values, some of them ahead of it.

Test: solvent given as SMILES

Compound: C(#Cc1ccccc1)C1=Cc2ccc3ccccc3c2NB1c1ccccc1
absorption maximum (in C1CCCCC1): 387 nm

Compound: CCCCCCCCN1C(=O)c2ccc3c4c(-c5ccc(-n6c7ccccc7c7ccccc76)cc5)cc5c6c(cc(-c7ccc(-n8c9ccccc9c9ccccc98)cc7)c(c7ccc(c2c37)C1=O)c64)C(=O)N(CCCCCCCC)C5=O
absorption maximum (in ClC(Cl)Cl): 551 nm

Compound: CCC1=C(C)C2=Cc3c4ccccc4c4n3[B-](c3ccncc3)(Oc3ccccc3-4)[N+]2=C1C=Cc1ccc(OC)cc1 (stereo not drawn)
absorption maximum (in CC#N): 690 nm | absorption maximum (in CCCCCC): 698 nm | absorption maximum (in Cc1ccccc1): 703 nm | absorption maximum (in ClCCl): 699 nm

Compound: C[Si](C)(C)c1sc([Si](C)(C)C)c2c1sc1c3sc4c(sc5c4sc4c([Si](C)(C)C)sc([Si](C)(C)C)c45)c3sc12
absorption maximum (in ClC(Cl)Cl): 405 nm

Compound: CC[N+]1(CC)CN2C(=N1)C(C(=O)O)=Cc1ccc(OC)cc12
absorption maximum (in O): 372 nm

Compound: CCCCCCCCc1ccc(-c2c3cc(-c4cc(CCCCCCCC)c(-c5ccc(-c6sc(/C=C7\SC(N8CCCCC8)=NC7=O)cc6CCCCCCCC)s5)s4)sc3c(-c3ccc(CCCCCCCC)s3)c3cc(-c4cc(CCCCCCCC)c(-c5ccc(-c6sc(/C=C7\SC(N8CCCCC8)=NC7=O)cc6CCCCCCCC)s5)s4)sc23)s1
absorption maximum (in ClC(Cl)Cl): 475 nm

Compound: CCCCN1C(=O)c2cccc3c(N(C)C)ccc(c23)C1=O
absorption maximum (in CC#N): 416 nm | absorption maximum (in CS(C)=O): 428 nm | absorption maximum (in Cc1ccccc1): 403 nm

Compound: CC(C)(C)c1ccc2c(c1)c1cc(C(C)(C)C)ccc1n2-c1cccc(-c2nc(-c3cccc(-n4c5ccc(C(C)(C)C)cc5c5cc(C(C)(C)C)ccc54)c3)nc(-c3cccc(P(=O)(c4ccccc4)c4ccccc4)c3)n2)c1
absorption maximum (in C1CCOC1): 344.36 nm | absorption maximum (in CC#N): 344.36 nm | absorption maximum (in CC(C)=O): 344.36 nm | absorption maximum (in CN(C)C=O): 344.36 nm | absorption maximum (in Cc1ccccc1): 344.36 nm | absorption maximum (in ClC(Cl)Cl): 344.36 nm | absorption maximum (in ClCCl): 344.36 nm

Compound: CCCCCCn1c(=O)c2c3[nH]c4cc5sc6c([nH]c5cc4sc3c3c(=O)n(CCCCCC)c(=O)c3c2c1=O)c1c(=O)n(CCCCCC)c(=O)c1c1c(=O)n(CCCCCC)c(=O)c61
absorption maximum (in ClCCl): 549 nm

Compound: C#CC1CN2CCC1CC2[C@@H](O)c1ccnc2ccc(OC)cc12 (stereo partly drawn)
absorption maximum (in C1CCOC1): 332 nm | absorption maximum (in CC#N): 332 nm | absorption maximum (in CCCC#N): 332 nm | absorption maximum (in Cc1ccccc1): 332 nm | absorption maximum (in ClCCl): 333 nm

Compound: Cc1c2ccccc2c(C2=C3C=CC=[N+]3[B-](F)(F)n3cccc32)c2ccccc12
absorption maximum (in CC#N): 502 nm | absorption maximum (in CCCCCC): 504 nm | absorption maximum (in CCO): 503 nm | absorption maximum (in CN(C)C=O): 506 nm | absorption maximum (in Cc1ccccc1): 508 nm | absorption maximum (in ClCCl): 506 nm

Compound: CN(C)c1ccc(-c2cc(-c3ccc(C#N)cc3)nn2C)cc1
absorption maximum (in C1CCCCC1): 288 nm | absorption maximum (in CC#N): 292 nm | absorption maximum (in CCOC(C)=O): 290 nm | absorption maximum (in CCOCC): 289 nm | absorption maximum (in CN(C)C=O): 295 nm | absorption maximum (in Cc1ccccc1): 292 nm | absorption maximum (in ClCCl): 292 nm

Compound: Oc1ccccc1/N=C/c1ccccc1Oc1ccccc1
absorption maximum (in C1CCCCC1): 353 nm | absorption maximum (in C1CCOC1): 355 nm | absorption maximum (in C1COCCO1): 367 nm | absorption maximum (in CC#N): 349 nm | absorption maximum (in CC(C)=O): 366 nm | absorption maximum (in CC(C)CO): 352 nm | absorption maximum (in CC(C)O): 352 nm | absorption maximum (in CCCCC): 355 nm | absorption maximum (in CCCCCC): 367 nm | absorption maximum (in CCCCCCCCO): 355 nm | absorption maximum (in CCCCCCCO): 354 nm | absorption maximum (in CCCCCCO): 355 nm | absorption maximum (in CCCCO): 353 nm | absorption maximum (in CCCCOC(C)=O): 367 nm | absorption maximum (in CCCO): 351 nm | absorption maximum (in CCO): 350 nm | absorption maximum (in CCOCC): 363 nm | absorption maximum (in CN(C)C=O): 349 nm | absorption maximum (in CO): 348 nm | absorption maximum (in CS(C)=O): 373 nm | absorption maximum (in Cc1ccccc1): 381 nm | absorption maximum (in Cc1ccccc1C): 359 nm | absorption maximum (in ClC(Cl)Cl): 356 nm | absorption maximum (in ClCCl): 356 nm | absorption maximum (in N#Cc1ccccc1): 357 nm | absorption maximum (in OCCO): 349 nm | absorption maximum (in c1ccccc1): 366 nm

Compound: CCOC(=O)/C(C#N)=C\c1cn(-c2ccccc2)nc1-c1ccccc1
absorption maximum (in C1CCOC1): 347 nm | absorption maximum (in C1COCCO1): 348 nm | absorption maximum (in CCO): 347 nm | absorption maximum (in CCOC(C)=O): 346 nm | absorption maximum (in CN(C)C=O): 347 nm | absorption maximum (in CO): 344 nm | absorption maximum (in CS(C)=O): 349 nm | absorption maximum (in Cc1ccccc1): 353 nm | absorption maximum (in ClC(Cl)Cl): 351 nm | absorption maximum (in ClCCl): 348 nm

Compound: COc1ccc(-n2c(C)ccc2C)cc1
absorption maximum (in CC#N): 224 nm | absorption maximum (in CCCCCC): 222 nm

Compound: CC1=CC(C)=[N+]2C1=C(c1ccc(N3CCCCC3)cc1)c1c(C)cc(C)n1[B-]2(F)F
absorption maximum (in C1CCOC1): 499 nm | absorption maximum (in CC#N): 496 nm | absorption maximum (in CC(=O)C(C)(C)C): 496 nm | absorption maximum (in CC(C)=O): 495 nm | absorption maximum (in CCCCCC): 500 nm | absorption maximum (in CCOC(C)=O): 498 nm | absorption maximum (in CO): 500 nm and 497 nm

Compound: Nc1ccccc1
absorption maximum (in C1CCCCC1): 283.13 nm

Compound: F[B-]1(F)n2c(c(-c3ccccc3)c(-c3cccs3)c2-c2ccccc2)N=C2C(c3ccccc3)=C(c3cccs3)C(c3ccccc3)=[N+]21
absorption maximum (in ClCCl): 650 nm

Compound: CCn1c2ccccc2c2cc(C#Cc3cc(C#Cc4ccc5c(c4)c4ccccc4n5CC)ncn3)ccc21
absorption maximum (in C1CCOC1): 382 nm | absorption maximum (in CCOC(C)=O): 379 nm | absorption maximum (in CN(C)C=O): 386 nm | absorption maximum (in Cc1ccccc1): 383 nm | absorption maximum (in ClCCl): 386 nm

Compound: Cc1c(C)c2c3ccccc3[nH]c2c2ccccc12
absorption maximum (in ClCCl): 302 nm

Compound: CC(C)(C)c1cc2ccc3c(-c4ccc(N(c5ccccc5)c5ccccc5)cc4)ccc4c5nc6cc(C#N)c(C#N)cc6nc5c(c1)c2c34
absorption maximum (in Cc1ccccc1): 500 nm

Compound: CN(C)c1ccc2nc(-c3ccc(C(=O)O)cc3)sc2c1
absorption maximum (in C1CCCCC1): 387 nm | absorption maximum (in CC#N): 390 nm | absorption maximum (in CC(C)O): 374 nm | absorption maximum (in CO): 377 nm | absorption maximum (in CS(C)=O): 400 nm | absorption maximum (in ClC(Cl)Cl): 400 nm | absorption maximum (in c1ccccc1): 394 nm

Compound: c1ccc2c(c1)CCc1ccccc1N2c1c2ccccc2cc2ccccc12
absorption maximum (in Cc1ccccc1): 426 nm

Compound: N#Cc1ccc(N)cc1
absorption maximum (in C1CCCCC1): 283 nm | absorption maximum (in CC#N): 272.85 nm | absorption maximum (in CCCCCC): 260.99 nm | absorption maximum (in CCO): 276 nm | absorption maximum (in O): 283 nm | absorption maximum (in OCC(F)(F)F): 264 nm

The next lines start with the values.

absorption maximum (in ClC(Cl)Cl): 662 nm
Compound: Cc1ccc(C2=C(/C=C/C(=O)OC3CC[C@@]4(C)C(=CC[C@H]5[C@@H]6CC[C@H]([C@H](C)CCCC(C)C)[C@@]6(C)CC[C@@H]54)C3)C(c3ccc(C)cc3)=[N+]3C2=Nc2c(-c4ccc(C)cc4)c(Br)c(-c4ccc(C)cc4)n2[B-]3(F)F)cc1 (stereo partly drawn)

absorption maximum (in CO): 797 nm
Compound: CC1(C)C(/C=C/C2=C(c3ccc(C(=O)O)cc3)C(=C/C=C3/N(CCCCS(=O)(=O)[O-])c4ccccc4C3(C)C)/CC2)=[N+](CCCCS(=O)(=O)[O-])c2ccccc21

absorption maximum (in ClCCl): 374 nm
Compound: CC(=O)c1c(N[C@@H](Cc2ccccc2)C(=O)O)c2ccc(N(C)C)cc2oc1=O

absorption maximum (in ClCCl): 369 nm
Compound: COc1ccc(/C=C/c2cc(/C=C/c3ccc(OC)cc3)nc(/C=C/c3ccccc3)n2)cc1

absorption maximum (in ClCCl): 318 nm
Compound: CN(C)c1cc(-c2ccccc2)cc2ccccc12

absorption maximum (in ClCCl): 391 nm
Compound: COc1cc(C(=O)c2c(C)c3ccc4cccc5c6cccc7ccc2c(c76)c3c45)cc(OC)c1OC

absorption maximum (in CC1CCCCC1): 390 nm | absorption maximum (in CC#N): 390 nm
Compound: C(=C\c1c2ccccc2cc2ccccc12)/c1ccc2ccccc2n1

absorption maximum (in ClCCl): 404 nm
Compound: CCN(CC)c1ccc2c(c1)oc(=O)c1cnc3c(c(C)nn3-c3ccccc3)c12

absorption maximum (in ClC(Cl)Cl): 404 nm
Compound: C[Si](C)(C)C#C[Si](c1c2ccccc2cc2ccccc12)(c1c2ccccc2cc2ccccc12)c1c2ccccc2cc2ccccc12

absorption maximum (in C1CCOC1): 409 nm
Compound: O=c1oc2cccc3c4cccc5ccc6c7ccccc7c1c(c23)c6c54

absorption maximum (in CC#N): 430 nm | absorption maximum (in ClCCl): 438 nm
Compound: Cn1c(=O)cc(C(=O)c2ccccc2)c2sc(-c3ccc(N(c4ccccc4)c4ccccc4)cc3)cc21

absorption maximum (in C1CCOC1): 455 nm | absorption maximum (in C1COCCO1): 452 nm | absorption maximum (in CN(C)C=O): 471 nm | absorption maximum (in CS(C)=O): 477 nm | absorption maximum (in ClCCl): 461 nm
Compound: CN(C)c1ccc2cc(C(/C=C/c3cn(C)c4ccccc34)=C(C#N)C#N)c(=O)oc2c1

absorption maximum (in C1COCCO1): 389 nm
Compound: CC(=O)Nc1ccc(C2=N/C(=C\c3ccc(C#N)cc3)C(=O)O2)cc1

absorption maximum (in C1CCOC1): 344 nm | absorption maximum (in CC#N): 341 nm | absorption maximum (in ClC(Cl)Cl): 346 nm | absorption maximum (in ClCCl): 345 nm
Compound: COc1ccc2cc(-c3ccc([N+](=O)[O-])cc3)ccc2c1

absorption maximum (in C1CCCCC1): 583.5 nm | absorption maximum (in CCOC(C)=O): 578 nm | absorption maximum (in CO): 576.5 nm
Compound: COc1ccc(C2=C3C=c4c(oc5ccccc45)=[N+]3[B-](F)(F)n3c2cc2c4ccccc4oc23)cc1

absorption maximum (in CO): 754 nm
Compound: CC1(C)C2=[N+](CCCCCC(=O)NCNC(=O)CCCCCN3/C(=C/C=C/C=C/C=C/2)C(C)(C)c2cc(S(=O)(=O)[O-])ccc23)c2ccc(S(=O)(=O)[O-])cc21

absorption maximum (in C1COCCO1): 538 nm | absorption maximum (in CN(C)C=O): 543 nm | absorption maximum (in CS(C)=O): 546 nm
Compound: CC(C)(C)NS(=O)(=O)c1ccc2c(c1)C(=O)/C(=C1\Sc3ccc(S(=O)(=O)NC(C)(C)C)cc3C1=O)S2

absorption maximum (in ClCCl): 402 nm
Compound: Cc1cc(-c2ccc(-c3ccccc3)cc2)cc(C)[o+]1

absorption maximum (in C1COCCO1): 336 nm
Compound: CCC1=C(C2=C(C3=C(CC)S(=O)(=O)c4cc(-c5ccccc5)ccc43)C(F)(F)C(F)(F)C2(F)F)c2ccc(-c3ccccc3)cc2S1(=O)=O

absorption maximum (in ClC(Cl)Cl): 408.16 nm
Compound: CCCCCCn1c2cc(/C=C/c3cccs3)ccc2c2ccc(/C=C/c3cccs3)cc21

absorption maximum (in ClCCl): 414 nm
Compound: CC(C)(C)c1cc2ccc3c(N(c4ccccc4)c4ccccc4)cc(N(c4ccccc4)c4ccccc4)c4ccc(c1)c2c34

absorption maximum (in CC#N): 380 nm | absorption maximum (in ClCCl): 384 nm
Compound: COc1ccc(/C=C/C(=O)c2c(O)cc(C)oc2=O)cc1
